Experiments:
[1] = target: T1, Alpha-2A adrenergic receptor (Homo sapiens, UniProt P08913); format: cell membranes, Sf9, Membrane; also: in other assays of this panel Not Active means under 50% inhibition at 10 µM
T1 sequence (P08913 whole entry): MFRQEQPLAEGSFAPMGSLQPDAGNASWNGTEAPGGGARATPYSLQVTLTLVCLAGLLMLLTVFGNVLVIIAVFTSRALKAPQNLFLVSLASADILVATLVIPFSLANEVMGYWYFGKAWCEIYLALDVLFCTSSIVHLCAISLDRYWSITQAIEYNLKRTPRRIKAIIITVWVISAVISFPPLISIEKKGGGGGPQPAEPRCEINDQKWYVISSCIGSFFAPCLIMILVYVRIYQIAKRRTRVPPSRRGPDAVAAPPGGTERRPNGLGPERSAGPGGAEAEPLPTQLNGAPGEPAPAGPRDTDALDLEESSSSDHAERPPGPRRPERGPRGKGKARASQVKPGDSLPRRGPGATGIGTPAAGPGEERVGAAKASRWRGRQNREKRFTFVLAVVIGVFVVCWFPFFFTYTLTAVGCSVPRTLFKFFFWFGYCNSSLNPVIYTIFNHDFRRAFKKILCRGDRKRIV

[2] = target: C-C chemokine receptor type 2 (Homo sapiens, UniProt P41597); format: cell membranes, Membrane; settings: cho-k1; also: in other assays of this panel Not Active means under 50% inhibition at 10 µM
[3] = target: C-C chemokine receptor type 5 (Homo sapiens, UniProt P51681); format: cell membranes, Membrane; settings: hek293; also: in other assays of this panel Not Active means under 50% inhibition at 10 µM
Substance-K receptor = target: T2, Substance-K receptor (Homo sapiens, UniProt P21452); format: cell membranes, CHO, Membrane; settings: for Ki: read-out: Ki; as to all read-outs here: in other assays of this panel Not Active means under 50% inhibition at 10 µM
T2 sequence (P21452 whole entry): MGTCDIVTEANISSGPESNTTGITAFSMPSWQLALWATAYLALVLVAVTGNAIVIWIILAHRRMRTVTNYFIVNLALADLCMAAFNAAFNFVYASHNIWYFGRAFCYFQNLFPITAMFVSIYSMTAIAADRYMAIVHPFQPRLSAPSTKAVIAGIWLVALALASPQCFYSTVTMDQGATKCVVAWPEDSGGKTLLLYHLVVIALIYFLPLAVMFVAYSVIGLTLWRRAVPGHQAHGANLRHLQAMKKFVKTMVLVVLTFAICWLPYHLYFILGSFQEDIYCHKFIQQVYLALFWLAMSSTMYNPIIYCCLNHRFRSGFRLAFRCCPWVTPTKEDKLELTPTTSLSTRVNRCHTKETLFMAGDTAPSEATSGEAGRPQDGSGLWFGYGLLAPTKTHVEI

[4] = target: Mitogen-activated protein kinase 14 (Homo sapiens, UniProt Q16539); set-up: species or system Escherichia coli
[5] = DRUGMATRIX: Glutamate, Kainate radioligand binding (ligand: [3H] Kainic acid); format: cell membranes, Rattus norvegicus, Wistar, Brain, Membrane; settings: Not Active = under 50% inhibition at 10 µM

Sequence of C-C chemokine receptor type 5 (P51681 whole entry): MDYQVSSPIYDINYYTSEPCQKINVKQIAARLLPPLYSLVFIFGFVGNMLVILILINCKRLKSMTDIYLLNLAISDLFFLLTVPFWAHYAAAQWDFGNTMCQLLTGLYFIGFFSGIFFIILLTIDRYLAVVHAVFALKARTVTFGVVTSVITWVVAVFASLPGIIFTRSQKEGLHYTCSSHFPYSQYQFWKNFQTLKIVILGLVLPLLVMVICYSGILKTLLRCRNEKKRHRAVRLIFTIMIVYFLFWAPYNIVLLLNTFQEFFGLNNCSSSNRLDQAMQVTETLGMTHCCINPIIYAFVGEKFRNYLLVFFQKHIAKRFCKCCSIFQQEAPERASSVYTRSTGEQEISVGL
Sequence of C-C chemokine receptor type 2 (P41597 whole entry): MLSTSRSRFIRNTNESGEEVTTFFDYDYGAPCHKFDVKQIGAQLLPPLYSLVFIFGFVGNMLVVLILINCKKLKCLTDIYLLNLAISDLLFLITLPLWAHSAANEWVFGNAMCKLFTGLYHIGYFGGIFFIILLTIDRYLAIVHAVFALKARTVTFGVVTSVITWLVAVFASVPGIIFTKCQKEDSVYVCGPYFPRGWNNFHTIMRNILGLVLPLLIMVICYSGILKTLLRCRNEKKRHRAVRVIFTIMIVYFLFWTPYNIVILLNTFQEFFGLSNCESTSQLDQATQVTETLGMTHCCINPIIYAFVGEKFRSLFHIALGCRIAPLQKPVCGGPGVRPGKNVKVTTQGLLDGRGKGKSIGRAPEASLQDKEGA
Sequence of Mitogen-activated protein kinase 14 (Q16539 whole entry): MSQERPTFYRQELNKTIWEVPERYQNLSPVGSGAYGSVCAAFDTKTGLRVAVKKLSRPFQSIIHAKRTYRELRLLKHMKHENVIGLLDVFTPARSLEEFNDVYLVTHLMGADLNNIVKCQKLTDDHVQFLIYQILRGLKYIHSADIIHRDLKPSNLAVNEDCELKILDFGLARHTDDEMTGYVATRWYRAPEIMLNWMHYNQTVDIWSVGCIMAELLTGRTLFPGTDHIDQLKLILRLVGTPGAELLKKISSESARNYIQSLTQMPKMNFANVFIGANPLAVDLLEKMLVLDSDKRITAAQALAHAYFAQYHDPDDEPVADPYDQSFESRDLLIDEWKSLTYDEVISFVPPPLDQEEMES

Cc1c(C)c2c(c(C)c1O)CCC(C)(CN1CCN(c3cc(N4CCCC4)nc(N4CCCC4)n3)CC1)O2 (centres undefined)
IC50 ([1]; sf9): Not Active
IC50 [2]: Not Active
IC50 [3]: Not Active
IC50 (Substance-K receptor; cho): Not Active
IC50 ([4]; read-out: IC50): 5.6 µM
IC50 [5]: Not Active
Ki [5]: Not Active

COc1ccc(CCN(C)CCCC(C#N)(c2ccc(OC)c(OC)c2)C(C)C)cc1OC (centres undefined)
IC50 [2]: Not Active
IC50 [3]: Not Active
IC50 (Substance-K receptor; cho): Not Active
IC50 [4]: Not Active
IC50 [5]: Not Active
Ki [5]: Not Active

CC(C)Cc1ccc([C@@H](C)C(=O)O)cc1 [(R)-IBUPROPHEN]
IC50 ([1]; sf9): Not Active
IC50 [2]: Not Active
IC50 [3]: Not Active
IC50 (Substance-K receptor; cho): Not Active
IC50 [4]: Not Active
IC50 [5]: Not Active
Ki [5]: Not Active

CN(C)CCOC(c1ccccc1)c1ccccc1 [DIPHENHYDRAMINE]
IC50 ([1]; sf9): Not Active
IC50 [2]: Not Active
IC50 [3]: Not Active
IC50 (Substance-K receptor; cho): Not Active
IC50 [4]: Not Active

Clc1ccc(COC(Cn2ccnc2)c2ccc(Cl)cc2Cl)cc1 (centres undefined) [ECONAZOLE]
IC50 [2]: Not Active
IC50 [3]: Not Active
IC50 (Substance-K receptor; read-out: IC50): 6.03 µM
Ki (Substance-K receptor): 2.01 µM
IC50 [4]: Not Active

CCN(CC)CCOc1ccc(/C(=C(/Cl)c2ccccc2)c2ccccc2)cc1 [ENCLOMIPHENE]
IC50 [2]: Not Active
IC50 [3]: Not Active
IC50 (Substance-K receptor; read-out: IC50): 4.52 µM
Ki (Substance-K receptor): 1.51 µM
IC50 [4]: Not Active

Fc1ccc(C(c2ccc(F)cc2)N2CCN(C/C=C/c3ccccc3)CC2)cc1 [FLUNARIZINE]
IC50 ([1]; read-out: IC50): 0.581 µM
Ki ([1]; read-out: Ki): 0.218 µM
IC50 [2]: Not Active
IC50 [3]: Not Active
IC50 (Substance-K receptor; cho): Not Active
IC50 [4]: Not Active

CNCCC(Oc1ccc(C(F)(F)F)cc1)c1ccccc1 (centres undefined) [FLUOXETINE]
IC50 ([1]; sf9): Not Active
IC50 [2]: Not Active
IC50 [3]: Not Active
IC50 (Substance-K receptor; cho): Not Active
IC50 [4]: Not Active

Cc1ccc(NC(=O)c2ccc(CN3CCN(C)CC3)cc2)cc1Nc1nccc(-c2cccnc2)n1 [IMATINIB]
IC50 ([1]; sf9): Not Active
IC50 [2]: Not Active
IC50 [3]: Not Active
IC50 (Substance-K receptor; cho): Not Active

CC(C)Oc1ccc2c(=O)c(-c3ccccc3)coc2c1 [IPRIFLAVONE]
IC50 ([1]; sf9): Not Active
IC50 [2]: Not Active
IC50 [3]: Not Active
IC50 (Substance-K receptor; cho): Not Active
IC50 [4]: Not Active
IC50 [5]: Not Active
Ki [5]: Not Active

CC(C)NCC(O)c1ccc(O)c(O)c1 (centres undefined) [ISOPROTERENOL]
IC50 ([1]; sf9): Not Active
IC50 [2]: Not Active
IC50 [3]: Not Active
IC50 (Substance-K receptor; cho): Not Active
IC50 [4]: Not Active
IC50 [5]: Not Active
Ki [5]: Not Active

CNC1(c2ccccc2Cl)CCCCC1=O (centres undefined) [KETAMINE]
IC50 ([1]; sf9): Not Active
IC50 [2]: Not Active
IC50 [3]: Not Active
IC50 (Substance-K receptor; cho): Not Active
IC50 [4]: Not Active
IC50 [5]: Not Active
Ki [5]: Not Active

N#Cc1ccc(C(c2ccc(C#N)cc2)n2cncn2)cc1 [LETROZOLE]
IC50 ([1]; sf9): Not Active
IC50 [2]: Not Active
IC50 [3]: Not Active
IC50 (Substance-K receptor; cho): Not Active
IC50 [4]: Not Active
IC50 [5]: Not Active
Ki [5]: Not Active

CCN1CCC[C@H]1CNC(=O)c1cc(S(N)(=O)=O)ccc1OC [LEVOSULPIRIDE]
IC50 ([1]; sf9): Not Active
IC50 [2]: Not Active
IC50 [3]: Not Active
IC50 (Substance-K receptor; cho): Not Active
IC50 [4]: Not Active
IC50 [5]: Not Active
Ki [5]: Not Active

CCN(CC)CC(=O)Nc1c(C)cccc1C [LIDOCAINE]
IC50 ([1]; sf9): Not Active
IC50 [2]: Not Active
IC50 [3]: Not Active
IC50 (Substance-K receptor; cho): Not Active
IC50 [4]: Not Active
IC50 [5]: Not Active
Ki [5]: Not Active

O=C1Nc2ccc(Cl)cc2C(c2ccccc2Cl)=NC1O (centres undefined) [LORAZEPAM]
IC50 ([1]; sf9): Not Active
IC50 [2]: Not Active
IC50 [3]: Not Active
IC50 (Substance-K receptor; cho): Not Active
IC50 [4]: Not Active
IC50 [5]: Not Active
Ki [5]: Not Active
